Data on 22 compounds can be found in patent publication US11066414B2, “Cot modulators and methods of use thereof” (Gilead Sciences, Inc., priority 2015, dated 2021).

Experiment [1] addresses Human Cot (Homo sapiens (Human), UniProt P41279). In words: High Throughput Cot Biochemical Assay. Conditions: Cot HTRF (TR-FRET KinEASE) biochemical assay, 400 μM ATP. For orientation: In TR-FRET formats the signal depends on donor and acceptor labels being close together.
Experiment [2] relates to TNFα. Nature of the experiment: Cot Monocyte TNFα Cell Based Assay.
Where [3] appears, read: Homo sapiens, Monocyte, read-out: EC50 TNF, LPS-stimulated human monocytes, TNFα TR-FRET.
Setting [4] is: read-out: EC50 TNF, LPS-stimulated human monocytes, TNFα TR-FRET.

Where two headings read alike, the source gives them in different places.

Sequence of Human Cot (P41279 30-397): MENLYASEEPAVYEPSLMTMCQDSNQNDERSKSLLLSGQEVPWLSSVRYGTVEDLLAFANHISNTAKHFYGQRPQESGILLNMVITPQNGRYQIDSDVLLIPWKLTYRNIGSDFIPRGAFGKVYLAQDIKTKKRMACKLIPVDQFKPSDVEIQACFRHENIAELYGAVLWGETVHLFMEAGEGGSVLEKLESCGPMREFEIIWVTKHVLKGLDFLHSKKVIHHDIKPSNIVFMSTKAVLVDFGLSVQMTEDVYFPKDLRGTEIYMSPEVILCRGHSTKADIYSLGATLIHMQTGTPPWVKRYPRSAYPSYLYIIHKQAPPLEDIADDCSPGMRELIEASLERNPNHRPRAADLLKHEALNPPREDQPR

For `CC[C@@H](Nc1c(C#N)cnc2c(Cl)cc(N[C@@H](c3ccc(F)nc3C)c3nnn(C4(C(F)(F)F)CC4)c3F)cc12)c1ccccc1` [Example 950, 8-chloro-6-(((S)-(5-fluoro-1-(1-(trifluoromethyl)cyclopropyl)-1H-1,2,3-triazol-4-yl)(6-fluoro-2-methylpyridin-3-yl)methyl)amino)-4-(((R)-1-phenylpropyl)amino)quinoline-3-carbonitrile], the IC50 in experiment [1] (IC50 HTRF) is 17 nM. In experiment [2] (setting [3]), the EC50 was found to be 260 nM.

As to `Cc1nc(F)ccc1[C@H](Nc1cc(Cl)c2ncc(C#N)c(NCC(C)(C)C)c2c1)c1nnn([C@@H](C)CF)c1F` [Example 952, 8-chloro-6-(((S)-(5-fluoro-1-((S)-1-fluoropropan-2-yl)-1H-1,2,3-triazol-4-yl)(6-fluoro-2-methylpyridin-3-yl)methyl)amino)-4-(neopentylamino)quinoline-3-carbonitrile], the IC50 in experiment [1] (IC50 HTRF) was 4 nM. In experiment [2] (setting [3]), the EC50 is 36 nM.

`Cc1nc(F)ccc1[C@H](Nc1cc(Cl)c2ncc(C#N)c(Nc3cnc(F)c(F)c3)c2c1)c1nnn(C2(C(F)F)CC2)c1F` [Example 953, (S)-8-chloro-6-(((1-(1-(difluoromethyl)cyclopropyl)-5-fluoro-1H-1,2,3-triazol-4-yl)(6-fluoro-2-methylpyridin-3-yl)methyl)amino)-4-((5,6-difluoropyridin-3-yl)amino)quinoline-3-carbonitrile] had an IC50 in experiment [1] (IC50 HTRF) of 36 nM. In addition, in experiment [2] (setting [3]), the EC50 was 353 nM.

On to `Cc1nc(F)ccc1[C@H](Nc1cc(C#N)c2ncc(C#N)c(NCC(C)(C)C)c2c1)c1nnn(C23CC(C2)C3)c1F` [Example 954, (S)-6-(((1-(bicyclo[1.1.1]pentan-1-yl)-5-fluoro-1H-1,2,3-triazol-4-yl)(6-fluoro-2-methylpyridin-3-yl)methyl)amino)-4-(neopentylamino)quinoline-3,8-dicarbonitrile], for which, in experiment [1] (IC50 HTRF), the IC50 was determined as 7 nM. Also, the EC50 in experiment [2] (setting [3]) came out at 16 nM.

`Cc1nc(F)ccc1[C@H](Nc1cc(Cl)c2ncc(C#N)c(NCC(C)(C)C(F)(F)F)c2c1)c1nnn([C@@H](C)CF)c1F` [Example 955, 8-chloro-6-(((S)-(5-fluoro-1-((S)-1-fluoropropan-2-yl)-1H-1,2,3-triazol-4-yl)(6-fluoro-2-methylpyridin-3-yl)methyl)amino)-4-((3,3,3-trifluoro-2,2-dimethylpropyl)amino)quinoline-3-carbonitrile] yielded an IC50 in experiment [1] (IC50 HTRF) of 6 nM. Further, in experiment [2] (setting [3]), the concentration giving a half-maximal response (EC50) stood at 50 nM.

In turn, `Cc1nc(F)ccc1[C@H](Nc1cc(Cl)c2ncc(C#N)c(NCC(C)(C)C(F)(F)F)c2c1)c1nnn(C23CC(C2)C3)c1F` [Example 956, (S)-6-(((1-(bicyclo[1.1.1]pentan-1-yl)-5-fluoro-1H-1,2,3-triazol-4-yl)(6-fluoro-2-methylpyridin-3-yl)methyl)amino)-8-chloro-4-((3,3,3-trifluoro-2,2-dimethylpropyl)amino)quinoline-3-carbonitrile] displayed an IC50 in experiment [1] (IC50 HTRF) of 7 nM. The EC50 in experiment [2] (setting [3]) came out at 44 nM.

Regarding `Cc1nc(F)ccc1[C@H](Nc1cc(Cl)c2ncc(C#N)c(NCC(C)(C)C(F)(F)F)c2c1)c1nnn(C2(C3CC3)CC2)c1F` [Example 957], the IC50 in experiment [1] (read-out: IC50 HTRF) was 5 nM. In experiment [2] (setting [4]), the EC50 is 54 nM.

`Cc1nc(F)ccc1[C@H](Nc1cc(Cl)c2ncc(C#N)c(NCC(C)(C)C(F)(F)F)c2c1)c1nnn(C2(C)CC2)c1F` [Example 959, (S)-8-chloro-6-(((5-fluoro-1-(1-methylcyclopropyl)-1H-1,2,3-triazol-4-yl)(6-fluoro-2-methylpyridin-3-yl)methyl)amino)-4-((3,3,3-trifluoro-2,2-dimethylpropyl)amino)quinoline-3-carbonitrile] gave an IC50 in experiment [1] (IC50 HTRF) of 3 nM. Besides, in experiment [2] (setting [3]), the EC50 was determined as 41 nM.

Consider `Cc1nc(F)ccc1[C@H](Nc1cc(Cl)c2ncc(C#N)c(NCC(C)(C)C)c2c1)c1nnn(C2(C(F)F)CC2)c1F` [Example 960, (S)-8-chloro-6-(((1-(1-(difluoromethyl)cyclopropyl)-5-fluoro-1H-1,2,3-triazol-4-yl)(6-fluoro-2-methylpyridin-3-yl)methyl)amino)-4-(neopentylamino)quinoline-3-carbonitrile], for which the IC50 in experiment [1] (IC50 HTRF) amounted to 7 nM. Also, the EC50 in experiment [2] (setting [3]) worked out at 55 nM.

In experiment [1] (IC50 HTRF), `Cc1nc(F)ccc1[C@H](Nc1cc(Cl)c2ncc(C#N)c(NCC(C)(C)C)c2c1)c1nnn(C)c1F` [Example 963, (S)-8-chloro-6-(((5-fluoro-1-methyl-1H-1,2,3-triazol-4-yl)(6-fluoro-2-methylpyridin-3-yl)methyl)amino)-4-(neopentylamino)quinoline-3-carbonitrile] showed an IC50 of 4 nM. Besides, the EC50 in experiment [2] (setting [3]) is 51 nM.

`COc1c([C@@H](Nc2cc(C#N)c3ncc(C#N)c(NCC(C)(C)C)c3c2)c2ccc(F)nc2C)nnn1C1(C(F)F)CC1` [Example 964, (S)-6-(((1-(1-(difluoromethyl)cyclopropyl)-5-methoxy-1H-1,2,3-triazol-4-yl)(6-fluoro-2-methylpyridin-3-yl)methyl)amino)-4-(neopentylamino)quinoline-3,8-dicarbonitrile]: the IC50 in experiment [1] (IC50 HTRF) came to 3 nM. In addition, in experiment [2] (setting [3]), the EC50 turned out to be 105 nM.

For the compound `COc1c([C@@H](Nc2cc(Cl)c3ncc(C#N)c(NCC(C)(C)C)c3c2)c2ccc(F)nc2C)nnn1C1(C(F)F)CC1` [Example 965, (S)-8-chloro-6-(((1-(1-(difluoromethyl)cyclopropyl)-5-methoxy-1H-1,2,3-triazol-4-yl)(6-fluoro-2-methylpyridin-3-yl)methyl)amino)-4-(neopentylamino)quinoline-3-carbonitrile], half-maximal inhibition in experiment [1] (IC50 HTRF) (IC50) required 4 nM. In addition, the EC50 in experiment [2] (setting [3]) turned out to be 78 nM.

Consider `COc1c([C@@H](Nc2cc(Cl)c3ncc(C#N)c(NCC(C)(C)C)c3c2)c2ccc(F)nc2C)nnn1C1CC1` [Example 967, (S)-8-chloro-6-(((1-cyclopropyl-5-methoxy-1H-1,2,3-triazol-4-yl)(6-fluoro-2-methylpyridin-3-yl)methyl)amino)-4-(neopentylamino)quinoline-3-carbonitrile], for which the IC50 in experiment [1] (IC50 HTRF) was found to be 2 nM. Moreover, the EC50 in experiment [2] (setting [3]) was found to be 94 nM.

For the compound `COc1c([C@@H](Nc2cc(Cl)c3ncc(C#N)c(NCC(C)(C)C)c3c2)c2ccc(F)nc2C)nnn1C12CC(C1)C2` [Example 968, (S)-6-(((1-(bicyclo[1.1.1]pentan-1-yl)-5-methoxy-1H-1,2,3-triazol-4-yl)(6-fluoro-2-methylpyridin-3-yl)methyl)amino)-8-chloro-4-(neopentylamino)quinoline-3-carbonitrile], in experiment [1] (IC50 HTRF), the IC50 amounted to 2 nM. Further, the EC50 in experiment [2] (setting [3]) amounted to 94 nM.

The compound `COc1c([C@@H](Nc2cc(Cl)c3ncc(C#N)c(NCC(C)(C)C)c3c2)c2ccc(F)nc2C)nnn1C` [Example 969, (S)-8-chloro-6-(((6-fluoro-2-methylpyridin-3-yl)(5-methoxy-1-methyl-1H-1,2,3-triazol-4-yl)methyl)amino)-4-(neopentylamino)quinoline-3-carbonitrile] yielded a concentration for half-maximal inhibition (IC50) in experiment [1] (IC50 HTRF) of 8 nM. In addition, the EC50 in experiment [2] (setting [3]) came to 258 nM.

In experiment [1] (IC50 HTRF), `COc1c(C(Nc2cc(Cl)c3ncc(C#N)c(NCC(C)(C)C)c3c2)c2ccc(F)nc2C)nnn1C` (centres unmarked) [Example 971, 8-chloro-6-(((6-fluoro-2-methylpyridin-3-yl)(5-methoxy-1-methyl-1H-1,2,3-triazol-4-yl)methyl)amino)-4-(neopentylamino)quinoline-3-carbonitrile] gave an IC50 of 11 nM. The EC50 in experiment [2] (setting [3]) was determined as 301 nM.

`CC(C)(C)CNc1c(C#N)cnc2c(Cl)cc(N[C@H](c3cn(C4(C(F)(F)F)CC4)nn3)c3cccc4[nH]c(C(F)(F)F)nc34)cc12` [Example 972, (S)-8-chloro-4-(neopentylamino)-6-(((2-(trifluoromethyl)-1H-benzo[d]imidazol-4-yl)(1-(1-(trifluoromethyl)cyclopropyl)-1H-1,2,3-triazol-4-yl)methyl)amino)quinoline-3-carbonitrile]: the IC50 in experiment [1] (IC50 HTRF) was found to be 1820 nM. In addition, the EC50 in experiment [2] (setting [3]) came to 1000 nM.

For the compound `[2H]c1c([C@@H](Nc2cc(Cl)c3ncc(C#N)c(NC([2H])([2H])C(C)(C)C)c3c2)c2ccc(F)nc2C)nnn1C1(C(F)F)CC1` [Example 973, (S)-8-chloro-6-(((1-(1-(difluoromethyl)cyclopropyl)-1H-1,2,3-triazol-4-yl-5-d)(6-fluoro-2-methylpyridin-3-yl)methyl)amino)-4-((2,2-dimethylpropyl-1,1-d2)amino)quinoline-3-carbonitrile], in experiment [1] (IC50 HTRF), it took 3 nM to reach half-maximal inhibition (IC50). Also, the EC50 in experiment [2] (setting [3]) was found to be 34 nM.

As to `Cc1nc(F)ccc1[C@H](Nc1cc(Cl)c2ncc(C#N)c(NCC(C)(C)C)c2c1)c1nnn(C2(C(F)F)CC2)c1C#N` [Example 974, (S)-8-chloro-6-(((5-cyano-1-(1-(difluoromethyl)cyclopropyl)-1H-1,2,3-triazol-4-yl)(6-fluoro-2-methylpyridin-3-yl)methyl)amino)-4-(neopentylamino)quinoline-3-carbonitrile], the IC50 in experiment [1] (IC50 HTRF) is 11 nM. In addition, in experiment [2] (setting [3]), the EC50 came to 60 nM.

In experiment [1] (IC50 HTRF), `Cc1nc(F)ccc1[C@H](Nc1cc(Cl)c2ncc(C#N)c(NCC(C)(C)C)c2c1Br)c1nnn(C2(C(F)F)CC2)c1F` [Example 975, (S)-5-bromo-8-chloro-6-(((1-(1-(difluoromethyl)cyclopropyl)-5-fluoro-1H-1,2,3-triazol-4-yl)(6-fluoro-2-methylpyridin-3-yl)methyl)amino)-4-(neopentylamino)quinoline-3-carbonitrile] returned an IC50 of 1230 nM. Also, the EC50 in experiment [2] (setting [3]) came to 1000 nM.

As to `Cc1nc(F)ccc1[C@H](Nc1cc(-c2cncnc2)c2ncc(C#N)c(NCC(C)(C)C)c2c1)c1cn(C2(C(F)F)CC2)nn1` [Example 976], the IC50 in experiment [1] (read-out: IC50 HTRF) was 21 nM. The EC50 in experiment [2] (setting [4]) is 276 nM.

In the case of `COc1ccc(C(Nc2cc(Cl)c3ncc(C#N)c(NCC(C)(C)C)c3c2)c2cn(C3(C(F)(F)F)CC3)nn2)c(C)n1` (centres unmarked) [Example 978, 8-chloro-6-(((6-methoxy-2-methylpyridin-3-yl)(1-(1-(trifluoromethyl)cyclopropyl)-1H-1,2,3-triazol-4-yl)methyl)amino)-4-(neopentylamino)quinoline-3-carbonitrile], the IC50 in experiment [1] (IC50 HTRF) came to 9 nM. In addition, the EC50 in experiment [2] (setting [3]) was 303 nM.

One may read the IC50 as the concentration that inhibits the measured activity by half. As a reminder, the EC50 is the concentration needed to bring the measured effect to its halfway point.
